Test results reported in patent publication US9073821B2, “Hydroxamic acid derivative” (priority 2010, dated 2015).

target: Pseudomonas aeruginosa LpxC enzyme (Pseudomonas aeruginosa (strain ATCC 15692 / DSM 22644 / CIP 104116 / JCM 14847 / LMG 12228 / 1C / PRS 101 / PAO1), UniProt P47205); assay: biochemical; assay type: biochemical; conditions: class symbols A/B/C by IC50; Table 3; read-out: Enzyme inhibitory activity (inhibitory activity on Pseudomonas aeruginosa LpxC enzyme)

IC50	SMILES
< 10 nM	CCOC1CN(Cc2ccc(C#Cc3ccc(C(=O)N(C)C(C(=O)NC)C(=O)NO)cc3)c(F)c2)C1 (stereo not shown) [Compound 564, 2-[{[4-({4-[(3-ethoxyazetidin-1-yl)methyl]-2-fluorophenyl}ethynyl)phenyl]carbonyl}(methyl)amino]-N-hydroxy-N′-methylpropanediamide]
< 10 nM	CNC(=O)C(C(=O)NO)N(C)C(=O)c1ccc(C#Cc2ccc(CN3CC(=CCOC)C3)cc2)cc1 (stereo not shown) [Compound 530, N-hydroxy-2-[({4-[(4-{[3-(2-methoxyethylidene)azetidin-1-yl]methyl}phenyl)ethynyl]phenyl}carbonyl)(methyl)amino]-N′-methylpropanediamide]
< 10 nM	CCOC1CN(Cc2ccc(C#Cc3ccc(C(=O)N(C)C(C(=O)NC)C(=O)NO)cc3)cc2C(F)(F)F)C1 (stereo not shown) [Compound 573, 2-[{[4-({4-[(3-ethoxyazetidin-1-yl)methyl]-3-(trifluoromethyl)phenyl}ethynyl)phenyl]carbonyl}(methyl)amino]-N-hydroxy-N′-methylpropanediamide]
< 10 nM	CCOC1CN(Cc2ccc(C#Cc3ccc(C(=O)N(C)C(C(=O)NC)C(=O)NO)cc3)cc2C)C1 (stereo not shown) [Compound 562, 2-[{[4-({4-[(3-ethoxyazetidin-1-yl)methyl]-3-methylphenyl}ethynyl)phenyl]carbonyl}(methyl)amino]-N-hydroxy-N′-methylpropanediamide]
10 to 100 nM	CNC(=O)C(C(=O)NO)N(C)C(=O)c1ccc(C#CC2=CCCCC2)cc1 (stereo not shown) [Compound 523, 2-[{[4-(cyclohex-1-en-1-ylethynyl)phenyl]carbonyl}(methyl)amino]-N-hydroxy-N′-methylpropanediamide]

same assay, conditions: inhibitory activity on Pseudomonas aeruginosa LpxC enzyme, class symbols A/B/C; read-out: Enzyme inhibitory activity

IC50	SMILES
< 10 nM	CNC(=O)C(C(=O)NO)N(C)C(=O)c1ccc(-c2ccc3c(cnn3C)c2)cc1 (stereo not shown) [Compound 196, N-hydroxy-N′-methyl-2-{methyl[4-(1-methyl-1H-indazol-5-yl)benzoyl]amino}propanediamide]
< 10 nM	CNC(=O)C(C(=O)NO)N(C)C(=O)c1ccc(-c2ccc3ccn(C)c3c2)cc1 (stereo not shown) [Compound 36, N-hydroxy-N′-methyl-2-{methyl[4-(1-methyl-1H-indol-6-yl)benzoyl]amino}propanediamide]
< 10 nM	CNC(=O)C(C)(C(=O)NO)N(C)C(=O)c1ccc(-c2ccccc2)cc1 (stereo not shown) [Compound 324, 2-[(Biphenyl-4-ylcarbonyl)(methyl)amino]-N-hydroxy-N′,2-dimethylpropanediamide]
< 10 nM	CNC(=O)C(C(=O)NO)N(C)C(=O)c1ccc(-c2ccc(OC(C)C)cc2)cc1 (stereo not shown) [Compound 213, N-hydroxy-N′-methyl-2-(methyl {[4′-(propan-2-yloxy)biphenyl-4-yl]carbonyl}amino)propanediamide]
< 10 nM	CNC(=O)C(C(=O)NO)N(C)C(=O)c1ccc(-c2cc3ccccc3o2)cc1 (stereo not shown) [Compound 312, 2-[{[4-(1-benzofuran-2-yl)phenyl]carbonyl}(methyl)amino]-N-hydroxy-N′-methylpropanediamide]
< 10 nM	CNC(=O)C(C(=O)NO)N(C)C(=O)c1ccc(C#Cc2ccc(C(C)N3CCOCC3)cc2)cc1 (stereo not shown) [Compound 367, N-hydroxy-N′-methyl-2-(methyl {[4-({4-[1-(morpholin-4-yl)ethyl]phenyl}ethynyl)phenyl]carbonyl}amino)propanediamide]
< 10 nM	CNC(=O)C(C(=O)NO)N(C)C(=O)c1ccc(-c2ccc(OCCCN3CC(C)OC(C)C3)cc2)cc1 (stereo not shown) [Compound 88, 2-[({4′-[3-(2,6-dimethylmorpholin-4-yl)propoxy]biphenyl-4-yl}carbonyl)(methyl)amino]-N-hydroxy-N′-methylpropanediamide]
< 10 nM	CNC(=O)C(C(=O)NO)N(C)C(=O)c1ccc(C#CC#Cc2ccc(CNCC(C)(C)C)cc2)cc1 (stereo not shown) [Compound 493, 2-[({4-[4-(4-{[(2,2-dimethylpropyl)amino]methyl}phenyl)buta-1,3-diyn-1-yl]phenyl}carbonyl)(methyl)amino]-N-hydroxy-N′-methylpropanediamide]
< 10 nM	CNC(=O)C(C(=O)NO)N(C)C(=O)c1ccc(-c2ccc(OC(F)F)cc2)cc1 (stereo not shown) [Compound 51, 2-[{[4′-(difluoromethoxy)biphenyl-4-yl]carbonyl}(methyl)amino]-N-hydroxy-N′-methylpropanediamide]
> 100 nM	CNC(=O)C(C(=O)NO)N(C)C(=O)c1ccc(-c2cnco2)cc1 (stereo not shown) [Compound 310, N-hydroxy-N′-methyl-2-(methyl {[4-(1,3-oxazol-5-yl)phenyl]carbonyl}amino)propanediamide]
< 10 nM	O=C(NC(C(=O)NO)C(=O)NCC1COc2ccccc2O1)c1ccc(-c2ccc(OCCO)cc2)cc1 (stereo not shown) [Compound 149, N-(2,3-dihydro-1,4-benzodioxin-2-ylmethyl)-N′-hydroxy-2-({[4′-(2-hydroxyethoxy)biphenyl-4-yl]carbonyl}amino)propanediamide]
< 10 nM	CNC(=O)C(C(=O)NO)N(C)C(=O)c1ccc(-c2ccc(OC)c(F)c2)cc1 (stereo not shown) [Compound 216, 2-{[(3′-fluoro-4′-methoxybiphenyl-4-yl)carbonyl](methyl)amino}-N-hydroxy-N′-methylpropanediamide]
10 to 100 nM	CC(C)(C)CNC(=O)C(NC(=O)c1ccc(-c2ccc(OCCO)cc2)cc1)C(=O)NO (stereo not shown) [Compound 136, N-(2,2-dimethylpropyl)-N′-hydroxy-2-({[4′-(2-hydroxyethoxy)biphenyl-4-yl]carbonyl}amino)propanediamide]
< 10 nM	CNC(=O)C(C(=O)NO)N(C)C(=O)c1ccc(-c2ccc(C)cc2F)c(F)c1 (stereo not shown) [Compound 460, 2-{[(2,2′-difluoro-4′-methylbiphenyl-4-yl)carbonyl](methyl)amino}-N-hydroxy-N′-methylpropanediamide]
< 10 nM	CNC(=O)C(C(=O)NO)N(C)C(=O)c1ccc(-c2ccc3[nH]c(C)cc3c2)cc1 (stereo not shown) [Compound 203, N-hydroxy-N′-methyl-2-{methyl[4-(2-methyl-1H-indol-5-yl)benzoyl]amino}propanediamide]
< 10 nM	CNC(=O)C(C(=O)NO)N(C)C(=O)c1ccc(-c2ccc(NCCOC)c(F)c2)cc1 (stereo not shown) [Compound 66, 2-[({3′-fluoro-4′-[(2-methoxyethyl)amino]biphenyl-4-yl}carbonyl)(methyl)amino]-N-hydroxy-N′-methylpropanediamide]
< 10 nM	CCCNc1ccc(-c2ccc(C(=O)N(C)C(C(=O)NC)C(=O)NO)cc2)cc1F (stereo not shown) [Compound 231, 2-[{[3′-fluoro-4′-(propylamino)biphenyl-4-yl]carbonyl}(methyl)amino]-N-hydroxy-N′-methylpropanediamide]
10 to 100 nM	CCCCc1ccc(C(=O)N(C)C(C(=O)NC)C(=O)NO)cc1 (stereo not shown) [Compound 37, 2-[(4-butylbenzoyl)(methyl)amino]-N-hydroxy-N′-methylpropanediamide]
> 100 nM	CN(C(=O)c1ccc(-c2ccccc2)cc1)C(C(=O)NO)C(=O)NCCc1ccccc1 (stereo not shown) [Compound 76, 2-[(biphenyl-4-ylcarbonyl)(methyl)amino]-N-hydroxy-N′-(2-phenylethyl)propanediamide]
< 10 nM	CNC(=O)C(C(=O)NO)N(C)C(=O)c1ccc(C#Cc2ccc(CNCCF)cc2)cc1 (stereo not shown) [Compound 300, 2-[({4-[(4-{[(2-fluoroethyl)amino]methyl}phenyl)ethynyl]phenyl}carbonyl)(methyl)amino]-N-hydroxy-N′-methylpropanediamide]
